Assays:
human Nav1.5 channel = biological target: T1, human Nav1.5 channel (Homo sapiens, UniProt Q14524); assay: NaV1.5 sodium channel screening assay, PatchXpress automated electrophysiology, cardiac action potential waveform 1 Hz; type: cell-based; settings: cardiac action potential waveform at 1 Hz; HEK cells; read-out: HNAv 1.5 Cardiac AP 1 Hz IC50
T1 construct: expressed in transfected cells; host or cells: HEK cells
Description: Inhibition of the TTX-resistant NaV1.5 sodium channel, a key cardiac ion channel, can have profound effects on the duration and amplitude of the cardiac action potential and can result in arrhythmias and other heart malfunctions. To assess the potential cardiac liability of compounds at an early stage in the drug discovery process, a NaV1.5 sodium channel screening assay is performed on Molecular Device's PatchXpress™ automated electrophysiology platform. Under voltage-calmp conditions, NaV1.5 currents were recorded from HEK cells expressing the human Nav1.5 channel in the absence and presence of increasing concentrations of the test compound to obtain an IC50 value. The external recording solution contained (in mM): 90 TEACl, 50 NaCl, 1.8 CaCl, 1 MgCl2, 10 HEPES, 10 glucose, adjusted to pH 7.4 with TEA-OH and to 300 mOsm with sucrose (if necessary), while the internal patch pipette solution contained (in mM): 129 CsF, 2 MgCl2, 11 EGTA, 10 HEPES, 3 Na2ATP adjusted to pH 7.2 with CsOH and to 290 mOsm with sucrose (if necessary). NaV1.5 channel currents were evoked using a cardiac action potential waveform at 1 Hz, digitized at 31.25 kHz and low-pass filtered at 12 kHz.

[1] = Rat Early Pharmacokinetic (EPK) study; type: in vivo; settings: PO, 3 mg/kg, formulation PG (propylene glycol)
Description: Male Sprague-Dawley rats were dosed via oral (PO) gavage in the detailed formulation. Blood samples were collected from the animals at 6 timepoints out to 4 hours post-dose. Pharmacokinetic analysis was performed on the LC-MS/MS measured concentrations for each timepoint of each compound.

T1 sequence (Q14524 whole entry): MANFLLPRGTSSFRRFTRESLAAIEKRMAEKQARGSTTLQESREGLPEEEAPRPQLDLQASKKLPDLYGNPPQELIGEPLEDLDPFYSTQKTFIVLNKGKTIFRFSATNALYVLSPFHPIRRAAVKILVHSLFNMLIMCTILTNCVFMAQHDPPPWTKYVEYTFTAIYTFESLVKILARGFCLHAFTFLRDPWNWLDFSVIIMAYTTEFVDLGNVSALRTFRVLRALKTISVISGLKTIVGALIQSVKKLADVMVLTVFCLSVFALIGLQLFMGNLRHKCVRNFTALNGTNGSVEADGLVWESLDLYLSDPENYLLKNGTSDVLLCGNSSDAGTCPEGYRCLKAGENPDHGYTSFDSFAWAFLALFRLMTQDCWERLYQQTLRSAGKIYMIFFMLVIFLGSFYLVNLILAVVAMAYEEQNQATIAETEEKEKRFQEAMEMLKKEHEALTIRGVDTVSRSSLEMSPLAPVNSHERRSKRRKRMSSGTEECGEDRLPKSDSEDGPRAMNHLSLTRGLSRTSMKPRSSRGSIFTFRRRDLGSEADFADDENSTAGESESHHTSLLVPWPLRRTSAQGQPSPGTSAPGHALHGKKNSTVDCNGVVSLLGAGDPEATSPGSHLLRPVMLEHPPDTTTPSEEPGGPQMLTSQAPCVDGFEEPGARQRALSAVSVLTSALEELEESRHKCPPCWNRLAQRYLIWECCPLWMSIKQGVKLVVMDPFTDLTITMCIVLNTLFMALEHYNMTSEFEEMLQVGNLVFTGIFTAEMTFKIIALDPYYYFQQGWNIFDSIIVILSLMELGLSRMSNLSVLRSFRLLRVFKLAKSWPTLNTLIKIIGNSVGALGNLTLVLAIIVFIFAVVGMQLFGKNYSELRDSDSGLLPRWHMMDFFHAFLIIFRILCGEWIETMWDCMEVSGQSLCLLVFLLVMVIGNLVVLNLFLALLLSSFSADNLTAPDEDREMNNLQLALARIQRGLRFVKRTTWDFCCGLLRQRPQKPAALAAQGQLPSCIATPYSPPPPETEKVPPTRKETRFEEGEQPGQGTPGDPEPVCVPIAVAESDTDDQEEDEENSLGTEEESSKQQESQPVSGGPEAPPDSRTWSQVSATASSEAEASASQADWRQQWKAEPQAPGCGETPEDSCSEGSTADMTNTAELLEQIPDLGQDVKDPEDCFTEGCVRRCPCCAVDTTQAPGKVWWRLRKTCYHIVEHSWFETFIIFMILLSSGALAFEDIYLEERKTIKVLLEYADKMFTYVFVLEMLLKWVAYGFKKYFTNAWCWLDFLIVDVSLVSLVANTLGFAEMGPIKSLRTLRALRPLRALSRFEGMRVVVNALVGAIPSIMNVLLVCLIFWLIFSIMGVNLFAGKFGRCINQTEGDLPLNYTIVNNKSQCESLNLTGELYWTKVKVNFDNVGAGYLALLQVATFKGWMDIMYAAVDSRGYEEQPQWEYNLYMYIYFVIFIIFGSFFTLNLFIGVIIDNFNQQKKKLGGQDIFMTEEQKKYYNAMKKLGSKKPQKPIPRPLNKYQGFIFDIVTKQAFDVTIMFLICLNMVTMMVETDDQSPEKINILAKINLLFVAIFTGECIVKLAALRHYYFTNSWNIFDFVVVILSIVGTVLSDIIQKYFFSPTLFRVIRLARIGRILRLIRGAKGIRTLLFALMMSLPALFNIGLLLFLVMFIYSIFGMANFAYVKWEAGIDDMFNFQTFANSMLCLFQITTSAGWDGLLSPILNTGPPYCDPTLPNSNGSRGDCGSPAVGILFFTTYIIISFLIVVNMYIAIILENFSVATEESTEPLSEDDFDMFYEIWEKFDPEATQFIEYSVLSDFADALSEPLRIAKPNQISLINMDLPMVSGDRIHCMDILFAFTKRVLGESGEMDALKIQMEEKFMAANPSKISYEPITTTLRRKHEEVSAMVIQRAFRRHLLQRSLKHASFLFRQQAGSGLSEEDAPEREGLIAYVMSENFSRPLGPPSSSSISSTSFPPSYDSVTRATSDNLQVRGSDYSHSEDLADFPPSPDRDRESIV

Dose Normalized AUC [1]: 108 nM·h
Dose Normalized Cmax [1]: 48 nM
Tmax ([1]; male, Sprague-Dawley, blood): 1.8 h
Compound: O=C(CN1CCNCC1)Nc1cc(C(F)(F)F)cc(C(F)(F)F)c1 [Compound 5, N-(3,5-bis(trifluoromethyl)phenyl)-2-(piperazin-1-yl)acetamide]
IC50 (human Nav1.5 channel): 40 µM

Source: patent US20120220603A1, “SUBSTITUTED HETEROCYCLIC DERIVATIVES FOR THE TREATMENT OF PAIN AND EPILEPSY” (ZALICUS PHARMACEUTICALS LTD., priority 2009, published 2012)
